Test results taken from publication PMC4961458 (eLife, 2016).

Legend:
[1] = biological target: T1, GR (Homo sapiens, UniProt P04150); test: GR transcriptional reporter assay, agonist mode (CV1 cells); format: cell-based; settings: CV-1; % of maximal dexamethasone-stimulated activity
T1 sequence (P04150 1-777): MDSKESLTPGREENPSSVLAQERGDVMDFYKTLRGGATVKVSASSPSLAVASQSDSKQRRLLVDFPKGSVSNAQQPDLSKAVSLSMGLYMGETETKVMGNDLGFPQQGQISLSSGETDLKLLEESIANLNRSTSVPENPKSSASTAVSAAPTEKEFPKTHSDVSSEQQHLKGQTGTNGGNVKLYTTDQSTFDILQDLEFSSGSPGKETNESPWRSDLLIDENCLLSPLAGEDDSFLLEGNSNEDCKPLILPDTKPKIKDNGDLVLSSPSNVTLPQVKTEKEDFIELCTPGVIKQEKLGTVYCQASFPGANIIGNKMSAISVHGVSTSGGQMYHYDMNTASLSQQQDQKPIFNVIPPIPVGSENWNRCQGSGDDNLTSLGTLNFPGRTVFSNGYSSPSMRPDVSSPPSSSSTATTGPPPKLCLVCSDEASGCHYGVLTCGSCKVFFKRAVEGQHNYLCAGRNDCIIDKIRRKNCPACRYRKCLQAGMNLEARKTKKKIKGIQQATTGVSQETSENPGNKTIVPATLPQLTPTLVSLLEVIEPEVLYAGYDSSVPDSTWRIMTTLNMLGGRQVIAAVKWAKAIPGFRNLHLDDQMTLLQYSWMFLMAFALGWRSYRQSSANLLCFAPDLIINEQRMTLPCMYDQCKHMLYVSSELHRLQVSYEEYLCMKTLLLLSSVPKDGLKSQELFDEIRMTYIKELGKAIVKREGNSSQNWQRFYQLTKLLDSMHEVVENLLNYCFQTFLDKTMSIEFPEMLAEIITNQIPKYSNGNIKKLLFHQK
Procedure: CV1 cells were maintained in MEM supplemented with 10% FBS. Transcriptional assays were performed by seeding 12 mL of cells at a density of 250,000 cells/mL into a T-75 cell culture flask in MEM supplemented with 5% charcoal-stripped serum and allowed to attach overnight. Cells were transiently transfected using FuGENE 6 (Roche Applied Science). […] Transfected cells were incubated overnight then split into four 96-well tissue culture plates and incubated for 4 hr followed by compound addition. […] The final agonist concentration used in the antagonist assays was 10 nM.

[2] = system: uterus of juvenile rats; test: Juvenile rat uterus assays; format: in vivo, Sprague Dawley rats; settings: for Uterine wet weight: tamoxifen 60 mg/kg orally once a day for 3 days, GDC-0810 0.1 or 10 mg/kg, relative to vehicle control; for Uterine wet weight / Endometrial epithelial cell morphology (histology, endometrial cell height): fulvestrant 50 mg/kg; for Endometrial epithelial cell morphology (histology, endometrial cell height): tamoxifen 60 mg/kg, GDC-0810 0.1 and 10 mg/kg
Source text: […] Rats were euthanized 4 hr after the final dose. Uteri were then dissected, weighed and fixed for histological examination. A small portion of tissue was saved prior to fixation for mRNA isolation and gene expression analysis.
H&E stained sections from bilateral representative uterine horn cross-sections were examined from two animals treated with the compounds shown. Endometrial cell height was digitally measured from the basement membrane to the apical (luminal) surface (orange line), using a digitally scanned image at 20X magnification. Obliquely cut areas were avoided. Three digital measurements were taken from each section (n = 6).
Estrogen receptor was detected using the mouse monoclonal anti-ER (clone 1D5, Dako), incubated for 60 min at RT at a dilution of 0.5 µg/ml, and visualized after secondary rabbit anti-mouse antibody binding with Powervision DAB (Leica Powersystems). H-scores were estimated manually, incorporating both intensity and percentage of positive nuclei, using the following formula: (0 x% negative)+(1 x% weak)+(2 x% moderate)+(3 x% strong)

[3] = system: MCF7 tumors; test: MCF7 xenograft efficacy; format: in vivo, mice; settings: […]60 day E2 pellets; GDC-0810 100 mg/kg/day p.o.; fulvestrant clinically relevant dose (50 then 25 mg/kg s.c.) and 200 mg/kg 3 times per week; 28 days
[4] = system: TamR1 tumors; design: method as in Lai et al., 2015; settings: 0.72 mg 60 day release E2 pellets; GDC-0810 p.o. 100 mg/kg/day; fulvestrant SC 200 mg/kg 3x/week; ref Lai et al., 2015; cited from earlier work
[5] = system: HCI-003 patient derived xenograft tumors; test: HCI-003 patient derived xenograft efficacy; format: in vivo, mice; settings: for Tumor growth response, HCI-003 PDX: 1 mg E2 beeswax pellets, GDC-0810 10 and 100 mg/kg/day p.o., fulvestrant 200 mg/kg 3x/week s.c., 43 days
Source text: Like MCF7, HCI-003 tumors are ER+, E2 dependent and tamoxifen sensitive (Figure 4—figure supplement 1C). […] Lack of efficacy in this ER-negative model is consistent with the GDC-0810 mechanism of action being selectively mediated through ER.
The HCI-003 model was established at the University of Utah, Huntsman Cancer Center via direct implantation of both primary tumor material into immune compromised mice ([DeRose et al., 2011]). HCI-003 is wild-type at the ESR1 ligand binding domain. Exogenous estradiol is required for robust growth of this patient derived tumor line, and is supplied in the form of estradiol impregnated beeswax pellets. Tumor fragments obtained from the Huntsman Cancer Center were surgically implanted into the cleared mammary fat pad of 19 day old female NOD.CB17-Prkdc^scid/NcrCrl mice (Charles River Laboratories). The right mammary fat pad of recipient animals was exposed by a 1 cm incision on the ventral mid-line at the level of the fourth mammary. The blood vessels were cauterized and the fat pad blunt dissected from the abdominal wall and skin. Tumor fragments were excised from donor animals, chopped into fragments approximately 8 mm^3 (2 × 2 × 2 mm), implanted in the region of the cleared mammary fat pad, and the incision was closed with wound clips. Estradiol impregnated beeswax pellets were implanted subcutaneously into the interscapular space of recipient animals on the day of tumor implant. Recipient animals were ovariectomized 19 days after tumor fragment implant. One group of animals was designated as a control for estradiol independent tumor growth (Vehicle-E2) and the estradiol impregnated pellets were excised on the first day of dosing. All mice were housed and maintained according to the animal-use guidelines of the Institutional Animal Care and Use Committee (IACUC), conforming to California State legal and ethical practices.

`CC/C(=C(\c1ccc(O)cc1)c1ccc(OCCN(C)C)cc1)c1ccccc1` [4-OH Tam, 4-hydroxytamoxifen] gave an Emax [1] of 1.99 ± 1.52%.

For `C[C@]12CC[C@@H]3c4ccc(O)cc4C[C@@H](CCCCCCCCC[S+]([O-])CCCC(F)(F)C(F)(F)F)[C@H]3[C@@H]1CC[C@@H]2O` (stereo partly drawn) [Fulvestrant], the “ER levels in the uterus (IHC)” value [2] was “robustly depletes ER”, the Uterine wet weight [2] was “significant decrease in uterine weight” and the “Endometrial epithelial cell morphology (histology, endometrial cell height)” value [2] was “remained cuboidal”. The “Tumor growth response, MCF7 xenograft” value [3] was “only modest tumor growth inhibition”, the “Tumor growth response, TamR1 xenograft, high E2” value [4] was “only modest tumor growth inhibition” and the “Tumor growth response, HCI-003 PDX” value [5] was “induced tumor regression”. For the same molecule, the “Anti-tumor activity, HCI-003 PDX (Figure 4—figure supplement 1C)” value ([5]; tamoxifen 60 mg/kg/day orally, fulvestrant 200 mg/kg 3x/week, 38 days) was “display anti-tumor activity”.

With `CC/C(=C(/c1ccc(/C=C/C(=O)O)cc1)c1ccc2[nH]ncc2c1)c1ccc(F)cc1Cl` [GDC-0810] the “ER levels in the uterus (IHC)” value [2] was “only modestly reduces ER levels”, the Uterine wet weight [2] was “did not significantly alter uterine wet” and the “Endometrial epithelial cell morphology (histology, endometrial cell height)” value [2] was “induced a cuboidal to columnar morphological change”. For the same molecule, the Emax [1] was 1.78 ± 1.21%, the “Tumor growth response, MCF7 xenograft” value [3] was “caused tumor regressions” and the “Tumor growth response, TamR1 xenograft, high E2” value [4] was “induced tumor regressions”. For the same molecule, the “Tumor growth response, HCI-003 PDX” value [5] was “drove tumor stasis”.
